Two compounds from ChEMBL document CHEMBL1132060, “Octa- and nonaprenylhydroquinone sulfates, inhibitors of alpha1,3-fucosyltransferase VII, from an Australian marine sponge Sarcotragus sp” (Bioorg Med Chem Lett, 1999) can be followed below.

What is called IC50 is the midpoint of a concentration-inhibition curve.

The test is described as follows: Inhibitory activity against fuc-TVII.

Consider `CC(C)=CCC/C(C)=C/CC/C(C)=C/CC/C(C)=C/CC/C(C)=C/CC/C(C)=C/CC/C(C)=C/CC/C(C)=C/Cc1cc(O)ccc1OS(=O)(=O)[O-].[Na+]`, for which the IC50 amounted to 3.9 µg/mL.
Under `CC(C)=CCC/C(C)=C/CC/C(C)=C/CC/C(C)=C/CC/C(C)=C/CC/C(C)=C/CC/C(C)=C/CC/C(C)=C/CC/C(C)=C/Cc1cc(O)ccc1OS(=O)(=O)[O-].[Na+]` stands 2.4 µg/mL.
